Patent US20260250250A1, “3-(SULPHONYL OR SULFONIMIDOYL)PROP-2-EN-1-YL]-2-OXO-1,2-DIHYDROPYRIDINE-3-CARBOXAMIDE DERIVATIVES” (Flinder Therapeutics B.V., priority 2022, published 2026)

How the values were obtained:
[1] = test system: NF-κB signaling pathway; experiment: Cell-based dual luciferase NF-κB reporter assay (HEK293 cells, TNF stimulated); conditions: Homo sapiens, HEK293
Protocol: Dual-luciferase reporter assay was designed to find inhibitors of HOIP affecting NF-κB signaling pathway. The assay was performed in HEK293 cells which were transfected with plasmids coding for Firefly and NanoLuc luciferases. The NanoLuc luciferase plasmid contains NF-κB response element which determines its expression.
The assay was run following standard dual-luciferase protocols. The assay consists of a few steps: • compounds were dispensed at a concentration range: 100-0.005 μM with a final DMSO concentration of 1% of final volume (25 μL); • cells were stimulated after 30 min with 2.5 ng/mL TNF; and • after 6 h Firefly and NanoLuc luciferase activities are determined according to the procedure described by the manufacturer of Nano-Glo Dual-Luciferase Reporter Assay System.

[2] = molecular target: T1, human E3 ubiquitin-protein ligase RNF31 (HOIP) (Homo sapiens, UniProt Q96EP0); experiment: Cell-free HTRF-based HOIP inhibition assay; format: biochemical
T1 sequence (Q96EP0 695-1072 limits assumed): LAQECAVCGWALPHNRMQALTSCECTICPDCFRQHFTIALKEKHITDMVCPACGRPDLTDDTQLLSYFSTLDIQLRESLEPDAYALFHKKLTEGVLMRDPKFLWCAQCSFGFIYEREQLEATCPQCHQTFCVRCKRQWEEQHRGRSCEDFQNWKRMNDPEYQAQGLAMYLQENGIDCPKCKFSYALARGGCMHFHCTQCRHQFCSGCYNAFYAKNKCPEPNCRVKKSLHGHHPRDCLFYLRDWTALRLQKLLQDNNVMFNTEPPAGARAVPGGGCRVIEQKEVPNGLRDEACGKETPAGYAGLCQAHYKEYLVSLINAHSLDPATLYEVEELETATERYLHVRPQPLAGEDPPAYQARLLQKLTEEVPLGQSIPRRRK
Protocol: This assay was performed in the following steps: • a) synthesis of recombinant fragment of human E3 ubiquitin-protein ligase RNF31 (HOIP), expressed with purity >90% in E. coli system (the protein was prepared as 1 mg/mL stock in a standard formulation); • b) incubation of the compounds in a typical concentration range: 100-0.005 μM, at a final DMSO conc. 1% with a mixture of HOIP and ubiquitin activating enzyme E1 at 25° C., for 1 h at 25° C.; • c) followed by addition of a ubiquitination solution including E2 and substrates (the reaction proceeds for 2.5 h at 25° C.); and • d) HTRF detection was performed using a PHERAstar FSX (BMG Labtech) plate reader (excitation at 337 nm, dual emissions at 665 and 620 nm).

[3] = test system: bladder carcinoma RT4 cell line; experiment: TNF-α-induced cytotoxicity assay (CellTiter-Glo viability); format: cell-based; conditions: Homo sapiens, RT-4, 72 h
Protocol: A viability assay, using bladder carcinoma RT4 cell line, was used for identifying the potential inhibitory effect of tested compounds on HOIP activity. The viability was determined by CellTiter-Glo Luminescent Cell Viability Assay (G7571, Promega) which measures the ability of generating a luminescent signal proportional to the amount of ATP present in living cells. The assay consists of a few steps: • a) the cells were routinely sub cultivated twice a week with standard complete growth medium composition; • b) cells were preparated for the assay by creating a cell suspension at the density of 0.05 mln cells/mL and dispensed into plates (ViewPlate-384, PerkinElmer) resulting in 1000 cells/well; • c) cells were stimulated with 1.25 ng/mL TNFα and with compounds and incubated for 72 h at 37° C. in the atmosphere with 5% CO2; and • d) for detection cytotoxicity was measured with CellTiter-Glo® Luminescent Cell Viability Assay based on the method described by the manufacturer.

SMILES | IC50 [1] | IC50 [2] | IC50 [3]
O=C(NC/C=C/S(=O)(=O)c1ccccc1)c1cc(-c2ccccc2)c[nH]c1=O [Example 12, N-[(2E)-3-(benzenesulfonyl)prop-2-en-1-yl]-2-oxo-5-phenyl-1,2-dihydropyridine-3-carboxamide] | ≤ 10000 nM | ≤ 1000 nM | ≤ 10000 nM
CC1(C(=O)N2CCc3[nH]c(=O)c(C(=O)NC/C=C/S(=O)(=O)c4ccccc4)cc3C2)CCC1 [Example 115, N-[(2E)-3-(benzenesulfonyl)prop-2-en-1-yl]-6-(1-methylcyclobutanecarbonyl)-2-oxo-1,2,5,6,7,8-hexahydro-1,6-naphthyridine-3-carboxamide] | ≤ 100000 nM | ≤ 1000 nM | ≤ 100000 nM
O=C(NC/C=C/S(=O)(=O)c1ccc(Cl)cc1Cl)c1cc(-c2ccccc2)c[nH]c1=O [Example 126, N-[(2E)-3-(2,4-dichlorobenzenesulfonyl)prop-2-en-1-yl]-2-oxo-5-phenyl-1,2-dihydropyridine-3-carboxamide] | ≤ 1000 nM | ≤ 100 nM | ≤ 10000 nM
COc1ccc(S(=O)(=O)/C=C/CNC(=O)c2cc3c([nH]c2=O)CCN(C(=O)OC(C)(C)C)C3)cc1F [Example 26, tert-butyl 3-{[(2E)-3-(3-fluoro-4-methoxybenzenesulfonyl)prop-2-en-1-yl]carbamoyl}-2-oxo-1,2,5,6,7,8-hexahydro-1,6-naphthyridine-6-carboxylate] | ≤ 1000 nM | ≤ 100 nM | ≤ 10000 nM
O=C(NC/C=C/S(=O)(=O)c1ccc(Cl)cc1)c1cc2c([nH]c1=O)CCN(C(=O)NC1CC1)C2 [Example 101, N3-[(2E)-3-(4-chlorobenzenesulfonyl)prop-2-en-1-yl]-N6-cyclopropyl-2-oxo-1,2,5,6,7,8-hexahydro-1,6-naphthyridine-3,6-dicarboxamide] | ≤ 100000 nM | ≤ 1000 nM | ≤ 100000 nM
COc1ccc(S(=N)(=O)/C=C/CNC(=O)c2cc3c([nH]c2=O)CCN(C(=O)OC(C)(C)C)C3)cc1F (stereo not drawn) [Example 152, tert-butyl 3-{[(2E)-3-[(3-fluoro-4-methoxyphenyl)(imino)oxo-λ^6-sulfanyl]prop-2-en-1-yl]carbamoyl}-2-oxo-1,2,5,6,7,8-hexahydro-1,6-naphthyridine-6-carboxylate] | ≤ 10000 nM | ≤ 100 nM | ≤ 10000 nM
O=C(NC/C=C/S(=O)(=O)c1ccccc1)c1cc2c([nH]c1=O)CCN(C(=O)OC1CCCC1)C2 [Example 84, cyclopentyl 3-{[(2E)-3-(benzenesulfonyl)prop-2-en-1-yl]carbamoyl}-2-oxo-1,2,5,6,7,8-hexahydro-1,6-naphthyridine-6-carboxylate] | ≤ 1000 nM | ≤ 100 nM | ≤ 1000 nM
CC(C)(C)OC(=O)N1CCc2[nH]c(=O)c(C(=O)NC/C=C/S(=O)(=O)c3ccc(F)cc3)cc2C1 [Example 25, tert-butyl 3-{[(2E)-3-(4-fluorobenzenesulfonyl)prop-2-en-1-yl]carbamoyl}-2-oxo-1,2,5,6,7,8-hexahydro-1,6-naphthyridine-6-carboxylate] | ≤ 1000 nM | ≤ 100 nM | ≤ 10000 nM
COc1ccc(S(=N)(=O)/C=C/CNC(=O)c2cc3c([nH]c2=O)CCCC3)cc1 (stereo not drawn) [Example 57, N-[(2E)-3-[imino(4-methoxyphenyl)oxo-λ^6-sulfanyl]prop-2-en-1-yl]-2-oxo-1,2,5,6,7,8-hexahydroquinoline-3-carboxamide] | ≤ 1000 nM |  | ≤ 1000 nM
CC(C)(C)c1ccc(S(=N)(=O)/C=C/CNC(=O)c2cc3c([nH]c2=O)CCCC3)cc1 (stereo not drawn) [Example 61, N-[(2E)-3-[(4-tert-butylphenyl)(imino)oxo-λ^6-sulfanyl]prop-2-en-1-yl]-2-oxo-1,2,5,6,7,8-hexahydroquinoline-3-carboxamide] | ≤ 1000 nM |  | ≤ 1000 nM
COc1ccc(S(=N)(=O)/C=C/CNC(=O)c2cc3c([nH]c2=O)CCC(C(C)C)C3)cc1F (stereo not drawn) [Example 144, N-[(2E)-3-[(3-fluoro-4-methoxyphenyl)(imino)oxo-λ^6-sulfanyl]prop-2-en-1-yl]-2-oxo-6-(propan-2-yl)-1,2,5,6,7,8-hexahydroquinoline-3-carboxamide] | ≤ 1000 nM |  | ≤ 1000 nM
CC(C)(C)c1ccc(S(=O)(=O)/C=C/CNC(=O)c2cc3c([nH]c2=O)CCCC3)cc1 [Example 50, N-[(2E)-3-(4-tert-butylbenzenesulfonyl)prop-2-en-1-yl]-2-oxo-1,2,5,6,7,8-hexahydroquinoline-3-carboxamide] | ≤ 10000 nM | ≤ 10000 nM | 

Further lines, with some results ahead:

IC50 [1] | IC50 [2] | SMILES | IC50 [3]
≤ 1000 nM | ≤ 1000 nM | COc1ccc(S(=N)(=O)/C=C/CNC(=O)c2cc3c([nH]c2=O)CCC(C(C)(C)C)C3)cc1F (stereo not drawn) [Example 148, 6-tert-butyl-N-[(2E)-3-[(3-fluoro-4-methoxyphenyl)(imino)oxo-A*-sulfanyl]prop-2-en-1-yl]-2-oxo-1,2,5,6,7,8-hexahydroquinoline-3-carboxamide] | ≤ 1000 nM
≤ 100000 nM | ≤ 1000 nM | O=C(NC/C=C/S(=O)(=O)c1ccccc1)c1cc2c([nH]c1=O)CCN(C(=O)CC1CC1)C2 [Example 117, N-[(2E)-3-(benzenesulfonyl)prop-2-en-1-yl]-6-(2-cyclopropylacetyl)-2-oxo-1,2,5,6,7,8-hexahydro-1,6-naphthyridine-3-carboxamide] | ≤ 100000 nM
≤ 1000 nM | ≤ 100 nM | O=C(NC/C=C/S(=O)(=O)c1ccccc1)c1cc2c([nH]c1=O)CCN(C(=O)OC1CCC1)C2 [Example 70, cyclobutyl 3-{[(2E)-3-(benzenesulfonyl)prop-2-en-1-yl]carbamoyl}-2-oxo-1,2,5,6,7,8-hexahydro-1,6-naphthyridine-6-carboxylate] | ≤ 1000 nM
≤ 1000 nM | ≤ 1000 nM | COc1ccc(S(=N)(=O)/C=C/CNC(=O)c2cc3c([nH]c2=O)CCCC3)cc1C (stereo not drawn) [Example 137, N-[(2E)-3-[imino(4-methoxy-3-methylphenyl)oxo-λ^6-sulfanyl]prop-2-en-1-yl]-2-oxo-1,2,5,6,7,8-hexahydroquinoline-3-carboxamide] | ≤ 1000 nM
≤ 1000 nM | ≤ 100 nM | O=C(NC/C=C/S(=O)(=O)c1ccc(Cl)cc1Cl)c1cc2c([nH]c1=O)CCCC2 [Example 32, N-[(2E)-3-(2,4-dichlorobenzenesulfonyl)prop-2-en-1-yl]-2-oxo-1,2,5,6,7,8-hexahydroquinoline-3-carboxamide] | ≤ 1000 nM
≤ 1000 nM |  | CN(C)c1ccc(S(=N)(=O)/C=C/CNC(=O)c2cc3c([nH]c2=O)CCCC3)cc1 (stereo not drawn) [Example 141, N-[(2E)-3-{[4-(dimethylamino)phenyl](imino)oxo-λ^6-sulfanyl}prop-2-en-1-yl]-2-oxo-1,2,5,6,7,8-hexahydroquinoline-3-carboxamide] | ≤ 1000 nM
≤ 10000 nM | ≤ 1000 nM | CC(C)(C)NC(=O)N1CCc2[nH]c(=O)c(C(=O)NC/C=C/S(=O)(=O)c3ccc(Cl)cc3)cc2C1 [Example 99, N6-tert-butyl-N3-[(2E)-3-(4-chlorobenzenesulfonyl)prop-2-en-1-yl]-2-oxo-1,2,5,6,7,8-hexahydro-1,6-naphthyridine-3,6-dicarboxamide] | ≤ 10000 nM
≤ 1000 nM | ≤ 1000 nM | COc1ccc(S(=N)(=O)/C=C/CNC(=O)c2cc3c([nH]c2=O)CCN(Cc2ccccc2)C3)cc1F (stereo not drawn) [Example 153, 6-benzyl-N-[(2E)-3-[(3-fluoro-4-methoxyphenyl)(imino)oxo-A*-sulfanyl]prop-2-en-1-yl]-2-oxo-1,2,5,6,7,8-hexahydro-1,6-naphthyridine-3-carboxamide] | ≤ 1000 nM
≤ 1000 nM |  | CCOc1ccc(S(=N)(=O)/C=C/CNC(=O)c2cc3c([nH]c2=O)CCCC3)cc1 (stereo not drawn) [Example 62, N-[(2E)-3-[(4-ethoxyphenyl)(imino)oxo-λ^6-sulfanyl]prop-2-en-1-yl]-2-oxo-1,2,5,6,7,8-hexahydroquinoline-3-carboxamide] | ≤ 1000 nM
